Measurements: US10695425B2, “Methods for treating and/or limiting development of diabetes in subjects with amyotrophic lateral sclerosis” (Biocrine AB, priority 2015, dated 2020)

System: αTC1-6 cells
Experiment: K+ depolarization-induced [Ca2+]i response in αTC1-6 cells (fura-2)
Assay type: cell-based, mouse
Conditions: αTC1-6 cells pre-exposed to specific Ca2+ channel blocker
Experimental: A glucose concentration of 11 mM was used for islet stimulation. After loading, islets and cells on the glass coverslips were transferred to an open perifusion chamber maintained at 37° C. and [Ca^2+]i measured as the 340/380 nm ratio. The light source was equipped with a xenon arc lamp and an integrated shutter (Lambda DG-4, Sutter instrument company), and coupled to the microscope (Olympus ix 71) via a liquid light guide. The 16-bit grayscale images with a binning of 1×1 were captured every 1 s (exposure time ranged from 100 to 300 ms) with a cooled EM-CCD camera (ImagEM X2, Hamamatsu). The camera and shutter were controlled by METAFLUOR® (Molecular Devices) software, which was also used for analysis. Cells with bright [Ca^2+]i signal defined the regions of interest (ROIs). ROI signals were calculated by subtracting background noise signal.

## w-agatoxin TK
  blocker-sensitive share of K+ depolarization-induced [Ca2+]i increase: considerable number
